From patent US20230120205A1, “NERVE CELL DEGENERATION INHIBITOR” (KYOTO UNIVERSITY, priority 2020, published 2023)

System: ALS7 (C9orf72) cell-derived motor neurons
Experiment: RNA foci inhibitory activity (FISH with Cy3 probe, high-content analysis)
Type: cell-based, human
Details: one day after addition, vs DMSO
Text: Using ALS7 (C9orf72) cell line described in K. Imamura et al, Science Translational Medicine 2017, 9, eaaf3962, the effect of the compound used in the present invention on RNA foci was examined. The cell line is stable cell line prepared by introducing the tetracycline-induced Lhx3, Ngn2 and Isl1 genes into iPS cell lines established from a familial ALS patient with abnormal expansion of the G4C2 repeat of the C9orf72 gene. Therefore, ALS7 (C9orf72) cell is an ALS cell model that rapidly (within about 7 days) differentiates into motor neurons when tetracycline or a derivative thereof is added to the medium, and after differentiation, spontaneously goes on to cell death (see the above documents). […] ALS7 (C9orf72) cells were cultured on feeder cells (mitomycin-treated SNL cells) using an iPS cell maintenance medium consisting of Primate ES Cell medium (ReproCell, […]), 4 ng/ml hbFGF (Wako, 060-04543), 50 μg/ml G418 (Nacalai, 09380-86) and Penicillin-Streptomycin (Thermo Fisher Scientific, 15140-122). The method for seeding ALS7 (C9orf72) cells on an assay plate is as follows. Matrigel (BD Falcon, D2650) was diluted 20-fold with an assay medium consisting of DMEM/F-12 (1:1) (Thermo Fisher Scientific, 11330-057), N2 supplement (Thermo Fisher Scientific, 17502-048), Penicillin-Streptomycin (Thermo Fisher Scientific, 15140-122), 10 ng/ml recombinant human BDNF (PeproTech, 450-02), 10 ng/ml recombinant human GDNF (PeproTech, 450-10), 10 ng/ml recombinant human NT-3 (PeproTech, 450-03), 1 μM Retinoic acid (Sigma, R2625), 1 μg/ml Doxycycline (Clontech, 631311), 1 μM SAG (Enzo life sciences, ALX-270-426-M001) and 10 μ[…] (Wako, 253-00513), and then a 384-well plate (CellCarrier-384 Ultra, PerkinElmer, 6057300) was coated with the diluted solution. The ALS7 (C9orf72) cells were then suspended in the assay medium, and seeded on the matrigel-coated assay plate at 1×10^4 cells per well. The fluorescent staining method of RNA foci in motor neurons differentiated from ALS7 (C9orf72) cells is as follows. For the ALS7 (C9orf72) cells seeded on the assay plate according to the method described in the previous section, the assay medium containing no Y-27632 was added to the plate four days after seeding, and the cells were cultured. Seven days after seeding, the assay medium (Retinoic Acid, Doxycycline, SAG, Y-27632-free) containing the test compound at a predetermined concentration was added to the plate by medium exchange, and one day after addition of the test compound, PFA (Wako, 163-20145) was added to the plate to fix the cells. After washing with PBS (Wako, 045-29795) was repeated three times, ice-cold methanol (Wako, 131-01826) was added to the plate, and the plate was allowed to stand for 10 minutes at room temperature. DNA probe [[NT] ID NO:1), SIGMA genosys, custom synthesis] was denatured at 80° C. for 75 sec, prepared to 2 μg/μL in a hybri buffer consisting of 50% formamide (Wako, 066-02301), 2×SSC (Nippon Gene, 319-90015), 50 mM sodium phosphate (TEKNOVA, […]), 10% Dextran sulfate (SIGMA, […]), 0.1 mg/mL yeast tRNA ([…], 15401029) and RNase free water (QIAGEN, 129112), and added to the plate, and the plate was allowed to stand at 37° C. for 16 to 24 hrs to bind the probe to the RNA foci. A wash buffer consisting of 50% formamide, 1×SSC and RNase free water was added to the plate, and the plate was allowed to stand at 37° C. for 30 minutes, followed by washing with PBS. Hoechst (invitrogen, H3569) diluted 5000-fold with by PBS was added to the plate, and the plate was allowed to stand for 20 minutes at room temperature to stain the cell nuclei, followed by washing with PBS. The RNA foci in the cell nuclei were detected by analyzing the above treated plate (measuring Cy3 fluorescence) with a high-content analyzer. The high-content analyzer used was Opera Phenix from PerkinElmer. […] The method for detecting the activity of the test compound is as follows.

`COc1cc(F)ccc1-c1ncnc(Nc2cccc(CS(C)(=N)=O)c2)n1` (stereo not drawn) [Compound No. 1, 4-(4-fluoro-2-methoxyphenyl)-N-{3-[(S-methanesulfonimidoyl)methyl]phenyl}-1,3,5-triazin-2-amine] was tested, and the “RNA foci inhibitory activity %” value (1 μM test compound) was 48%, the “RNA foci inhibitory activity %” value (3 μM test compound) was 58% and the “RNA foci inhibitory activity %” value (10 μM test compound) was 46%.
With `COc1ccccc1-c1ncnc(Nc2cccc(CS(N)(=O)=O)c2)n1` [Compound No. 2, 1-(3-{[4-(2-methoxyphenyl)-1,3,5-triazin-2-yl]amino}phenyl)methanesulfonamide] the “RNA foci inhibitory activity %” value (1 μM test compound) was 20%, the “RNA foci inhibitory activity %” value (3 μM test compound) was 49% and the “RNA foci inhibitory activity %” value (10 μM test compound) was 55%.
For `COc1cc(Cl)ccc1-c1ncnc(Nc2cccc(CS(N)(=O)=O)c2)n1` [Compound No. 3, 1-(3-{[4-(4-chloro-2-methoxyphenyl)-1,3,5-triazin-2-yl]amino}phenyl)methanesulfonamide], the “RNA foci inhibitory activity %” value (1 μM test compound) was 16%, the “RNA foci inhibitory activity %” value (3 μM test compound) was 55% and the “RNA foci inhibitory activity %” value (10 μM test compound) was 51%.
In the case of `NS(=O)(=O)Cc1cccc(Nc2ncnc(-c3ccccc3OCc3ccccc3)n2)c1.O=C(O)C(F)(F)F` [Compound No. 4a, 1-[3-({4-[2-(benzyloxy)phenyl]-1,3,5-triazin-2-yl}amino)phenyl]methanesulfonamide trifluoroacetate], the “RNA foci inhibitory activity %” value (1 μM test compound) is reported as 50%, the “RNA foci inhibitory activity %” value (3 μM test compound) is reported as 45% and the “RNA foci inhibitory activity %” value (10 μM test compound) is reported as 45%.
For `NS(=O)(=O)Cc1cccc(Nc2ncnc(-c3ccccc3OCc3ccccc3)n2)c1` [Compound No. 4b, 1-[3-({4-[2-(benzyloxy)phenyl]-1,3,5-triazin-2-yl}amino)phenyl]methanesulfonamide], the “RNA foci inhibitory activity %” value (1 μM test compound) was 52%, the “RNA foci inhibitory activity %” value (3 μM test compound) was 41% and the “RNA foci inhibitory activity %” value (10 μM test compound) was 47%.
`CS(=N)(=O)Cc1cccc(Nc2ncnc(-c3ccccc3OCc3ccc(Cl)c(Cl)c3)n2)c1` (stereo not drawn) [Compound No. 5, 4-{2-[(3,4-dichlorophenyl)methoxy]phenyl}-N-{3-[(S-methanesulfonimidoyl)methyl]phenyl}-1,3,5-triazin-2-amine] was tested, and the “RNA foci inhibitory activity %” value (1 μM test compound) was 61%, the “RNA foci inhibitory activity %” value (3 μM test compound) was 44% and the “RNA foci inhibitory activity %” value (10 μM test compound) was 50%.
For `CCOC(=O)N=S(C)(=O)Cc1cccc(Nc2ncnc(-c3cccc4c3OCCO4)n2)c1` (stereo not drawn) [Compound No. 6, ethyl {[(3-{[4-(2,3-dihydro-1,4-benzodioxin-5-yl)-1,3,5-triazin-2-yl]amino}phenyl)methyl](methyl)oxo-λ^6-sulfanylidene}carbamate], the “RNA foci inhibitory activity %” value (1 μM test compound) was 62%, the “RNA foci inhibitory activity %” value (3 μM test compound) was 48% and the “RNA foci inhibitory activity %” value (10 μM test compound) was 48%.
For `CCOC(=O)N=S(C)(=O)Cc1cccc(Nc2ncnc(-c3cccc4c3OCC4)n2)c1` (stereo not drawn) [Compound No. 7, ethyl {[(3-{[4-(2,3-dihydro-1-benzofuran-7-yl)-1,3,5-triazin-2-yl]amino}phenyl)methyl](methyl)oxo-λ^6-sulfanylidene}carbamate], the “RNA foci inhibitory activity %” value (1 μM test compound) was 47%, the “RNA foci inhibitory activity %” value (3 μM test compound) was 55% and the “RNA foci inhibitory activity %” value (10 μM test compound) was 43%.
